Tests used:
Cytochrome P450 2C9 = Cytochrome P450 2C9 (Homo sapiens, UniProt P11712); settings: bti-tn-5b1-4; also: in other assays of this panel Not Active means under 50% inhibition at 10 µM
[1] = target: Mitogen-activated protein kinase 1 (Homo sapiens, UniProt P28482); assay: DRUGMATRIX: Protein Serine/Threonine Kinase, ERK2 enzyme inhibition (substrate: Myelin Basic Protein); set-up: species or system Escherichia coli; settings: Not Active = under 50% inhibition at 10 µM
Neutrophil elastase = target: T1, Neutrophil elastase (Homo sapiens, UniProt P08246); format: tissue-based;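 also: inhibition of neutrophil elastase enzyme activity, measured with a p-nitroanilide-linked peptide substrate; in other assays of this panel Not Active means under 50% inhibition at 10 µM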
T1 sequence (P08246 whole entry): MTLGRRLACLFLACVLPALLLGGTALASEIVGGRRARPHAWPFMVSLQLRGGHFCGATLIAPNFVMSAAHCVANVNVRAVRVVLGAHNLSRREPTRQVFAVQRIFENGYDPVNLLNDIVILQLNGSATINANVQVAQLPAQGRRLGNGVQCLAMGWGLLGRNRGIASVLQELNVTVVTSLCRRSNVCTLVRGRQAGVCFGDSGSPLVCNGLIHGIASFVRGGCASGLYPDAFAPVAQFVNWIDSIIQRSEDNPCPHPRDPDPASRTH

D(3) dopamine receptor = D(3) dopamine receptor (Homo sapiens, UniProt P35462); assay: DRUGMATRIX: Dopamine D3 radioligand binding (ligand: [3H] Spiperone); format: cell membranes, CHO, Membrane
Sequence of D(3) dopamine receptor (P35462 whole entry): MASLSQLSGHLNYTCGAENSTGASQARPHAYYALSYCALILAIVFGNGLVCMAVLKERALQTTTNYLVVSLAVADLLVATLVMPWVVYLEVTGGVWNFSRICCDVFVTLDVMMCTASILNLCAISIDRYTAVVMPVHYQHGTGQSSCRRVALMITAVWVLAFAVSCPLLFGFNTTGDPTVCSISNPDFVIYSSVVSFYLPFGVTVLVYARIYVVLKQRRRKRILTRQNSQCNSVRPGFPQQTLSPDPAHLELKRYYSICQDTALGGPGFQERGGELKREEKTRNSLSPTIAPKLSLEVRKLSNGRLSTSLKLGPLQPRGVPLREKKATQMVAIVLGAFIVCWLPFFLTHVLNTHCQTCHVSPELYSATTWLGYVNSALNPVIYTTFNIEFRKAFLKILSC

Progesterone receptor = target: T2, Progesterone receptor (Bos taurus, UniProt Q690N0); assay: DRUGMATRIX: Progesterone radioligand binding (ligand: [3H] R-5020); format: tissue-based, Uterus; settings: Not Active = under 50% inhibition at 10 µM
T2 sequence (Q690N0 whole entry): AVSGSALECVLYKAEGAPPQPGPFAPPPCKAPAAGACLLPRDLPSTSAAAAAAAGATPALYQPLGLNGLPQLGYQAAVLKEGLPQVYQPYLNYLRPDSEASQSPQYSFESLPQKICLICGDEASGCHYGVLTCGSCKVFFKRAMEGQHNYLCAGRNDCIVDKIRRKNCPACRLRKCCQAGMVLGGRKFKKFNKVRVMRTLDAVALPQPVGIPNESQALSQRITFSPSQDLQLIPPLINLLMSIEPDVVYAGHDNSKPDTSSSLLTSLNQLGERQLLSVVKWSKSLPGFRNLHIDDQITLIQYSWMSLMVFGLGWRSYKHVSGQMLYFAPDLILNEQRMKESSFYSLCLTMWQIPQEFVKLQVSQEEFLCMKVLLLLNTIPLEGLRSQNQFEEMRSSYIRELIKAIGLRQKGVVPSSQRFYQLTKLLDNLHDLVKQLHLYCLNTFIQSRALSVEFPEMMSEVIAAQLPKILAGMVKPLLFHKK

[2] = DRUGMATRIX: Glutamate, NMDA, Phencyclidine radioligand binding (ligand: [3H] TCP); format: cell membranes, Rattus norvegicus, Wistar, Cerebral cortex, Membrane; settings: Not Active = under 50% inhibition at 10 µM
Mu-type opioid receptor = Mu-type opioid receptor (Homo sapiens, UniProt P35372); assay: DRUGMATRIX: Opiate mu (OP3, MOP) radioligand binding (ligand: [3H] Diprenorphine); format: cell membranes, CHO-K1, Membrane; settings: cho-k1; Not Active = under 50% inhibition at 10 µM
Sequence of Mu-type opioid receptor (P35372 whole entry): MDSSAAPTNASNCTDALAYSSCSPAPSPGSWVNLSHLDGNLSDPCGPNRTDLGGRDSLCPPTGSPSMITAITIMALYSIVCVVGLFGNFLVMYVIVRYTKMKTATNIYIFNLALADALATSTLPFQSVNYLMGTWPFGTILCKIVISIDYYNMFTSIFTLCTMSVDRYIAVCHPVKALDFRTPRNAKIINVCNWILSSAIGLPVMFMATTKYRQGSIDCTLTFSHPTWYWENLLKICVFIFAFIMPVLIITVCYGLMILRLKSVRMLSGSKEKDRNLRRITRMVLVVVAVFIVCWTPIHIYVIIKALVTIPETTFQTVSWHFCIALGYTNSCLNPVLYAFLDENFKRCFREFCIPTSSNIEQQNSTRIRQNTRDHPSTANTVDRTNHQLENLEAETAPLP

Sequence of Cytochrome P450 2C9 (P11712 whole entry): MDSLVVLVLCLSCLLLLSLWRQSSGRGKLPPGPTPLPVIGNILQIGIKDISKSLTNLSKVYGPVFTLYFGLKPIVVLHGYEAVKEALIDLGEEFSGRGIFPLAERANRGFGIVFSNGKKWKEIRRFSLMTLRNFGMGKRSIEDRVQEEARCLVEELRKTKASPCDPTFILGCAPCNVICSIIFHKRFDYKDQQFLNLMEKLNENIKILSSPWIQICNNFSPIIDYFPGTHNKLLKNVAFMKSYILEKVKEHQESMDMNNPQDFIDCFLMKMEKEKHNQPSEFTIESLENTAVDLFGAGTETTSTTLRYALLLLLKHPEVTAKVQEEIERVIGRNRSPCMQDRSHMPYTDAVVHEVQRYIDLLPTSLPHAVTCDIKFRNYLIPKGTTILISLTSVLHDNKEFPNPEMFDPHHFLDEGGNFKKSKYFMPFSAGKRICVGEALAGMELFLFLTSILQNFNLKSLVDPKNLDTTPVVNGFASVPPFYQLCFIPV
Sequence of Mitogen-activated protein kinase 1 (P28482 whole entry): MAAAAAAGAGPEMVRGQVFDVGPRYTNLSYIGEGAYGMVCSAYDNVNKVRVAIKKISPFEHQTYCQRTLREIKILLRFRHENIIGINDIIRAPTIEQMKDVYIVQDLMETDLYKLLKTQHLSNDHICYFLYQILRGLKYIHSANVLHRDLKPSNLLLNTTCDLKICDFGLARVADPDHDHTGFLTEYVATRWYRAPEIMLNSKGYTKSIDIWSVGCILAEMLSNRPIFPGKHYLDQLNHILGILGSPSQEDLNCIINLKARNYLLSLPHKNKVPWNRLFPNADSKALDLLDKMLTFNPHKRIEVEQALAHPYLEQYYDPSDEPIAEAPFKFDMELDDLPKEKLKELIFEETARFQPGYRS

Compound	IC50 (Cytochrome P450 2C9)	Ki (Cytochrome P450 2C9)	IC50 [1]	IC50 (Neutrophil elastase)	IC50 (D(3) dopamine receptor; cho)	IC50 (Progesterone receptor)	IC50 [2]	Ki [2]	IC50 (Mu-type opioid receptor)	Ki [1]	Ki (Neutrophil elastase)	IC50 (D(3) dopamine receptor; cho, read-out: IC50)	Ki (D(3) dopamine receptor; cho, read-out: Ki)	Ki (Progesterone receptor)	Ki (D(3) dopamine receptor; cho)	IC50 (Progesterone receptor; read-out: IC50)	Ki (Progesterone receptor; read-out: Ki)	IC50 (D(3) dopamine receptor; read-out: IC50)	Ki (D(3) dopamine receptor; read-out: Ki)
Cc1nnc2n1-c1ccc(Cl)cc1C(c1ccccc1)=NC2 [ALPRAZOLAM]	Not Active	Not Active	Not Active	Not Active	Not Active	Not Active	Not Active	Not Active											
COC(=O)CCc1ccc(OCC(O)CNC(C)C)cc1 (configuration not stated) [ESMOLOL]	Not Active	Not Active	Not Active	Not Active	Not Active	Not Active	Not Active	Not Active	Not Active										
COc1ccc2cc3[n+](cc2c1OC)CCc1cc2c(cc1-3)OCO2.[Cl-] [BERBERINE CHLORIDE]	Not Active	Not Active	Not Active	Not Active	Not Active	Not Active	Not Active	Not Active	Not Active										
CC(C)=CCC/C(C)=C/CO [GERANIOL]			Not Active	Not Active	Not Active	Not Active	Not Active	Not Active	Not Active										
NCCCC(O)(P(=O)(O)O)P(=O)(O)O [ALENDRONIC ACID]			Not Active	Not Active	Not Active	Not Active	Not Active	Not Active	Not Active										
AURANOFIN	Not Active	Not Active	Not Active	Not Active		Not Active	Not Active	Not Active		Not Active	Not Active	659 nM	224 nM	Not Active					
GADOPENTETATE DIMEGLUMINE	Not Active	Not Active	Not Active	Not Active	Not Active	Not Active	Not Active	Not Active		Not Active	Not Active			Not Active	Not Active				
CC(C)(C)NC(=O)[C@H]1CC[C@H]2[C@@H]3CC[C@H]4NC(=O)C=C[C@]4(C)[C@H]3CC[C@]12C [FINASTERIDE]			Not Active	Not Active	Not Active	Not Active	Not Active	Not Active	Not Active										
CC1(C)S[C@@H]2[C@H](NC(=O)[C@H](N)c3ccccc3)C(=O)N2[C@H]1C(=O)O [AMPICILLIN]			Not Active	Not Active	Not Active	Not Active	Not Active	Not Active	Not Active										
CC(=O)[C@@]1(O)CC[C@H]2[C@@H]3CCC4=CC(=O)CC[C@]4(C)[C@H]3CC[C@@]21C [HYDROXYPROGESTERONE]			Not Active	Not Active	Not Active		Not Active	Not Active	Not Active							12 nM	1.55 nM		
COC1=C(OC)C(=O)C(CCCCCCCCCCO)=C(C)C1=O [IDEBENONE]			Not Active	Not Active	Not Active	Not Active	Not Active	Not Active	Not Active										
C[C@@H]1C[C@H]2[C@@H]3CCC4=CC(=O)C=C[C@]4(C)[C@@]3(F)[C@@H](O)C[C@]2(C)[C@@]1(O)C(=O)CO [DEXAMETHASONE]			Not Active	Not Active	Not Active		Not Active	Not Active	Not Active							23300 nM	3040 nM		
O=C(c1ccccc1C(F)(F)F)N1CCC(Cc2ccccc2)CC1			Not Active	Not Active	Not Active	Not Active	Not Active	Not Active	Not Active										
GRAMICIDIN	Not Active	Not Active	Not Active	Not Active	Not Active	Not Active	Not Active	Not Active		Not Active	Not Active			Not Active	Not Active				
C[C@@H]1O[C@@H](O[C@@H]2C=C3CC[C@@H]4[C@H](CC[C@]5(C)[C@@H](c6ccc(=O)oc6)CC[C@]45O)[C@@]3(C)CC2)[C@H](O)[C@H](O)[C@H]1O [PROSCILLARIDIN]			Not Active	Not Active	Not Active	Not Active	Not Active	Not Active											
CC(C)c1cccc(C(C)C)c1O [PROPOFOL]			Not Active	Not Active	Not Active	Not Active	Not Active	Not Active	Not Active										
NYSTATIN	Not Active	Not Active	Not Active	Not Active	Not Active	Not Active	Not Active	Not Active		Not Active	Not Active			Not Active	Not Active				
CC(=O)Oc1ccc(C(c2ccc(OC(C)=O)cc2)c2ccccn2)cc1 [BISACODYL]			Not Active	Not Active	Not Active	Not Active	Not Active	Not Active	Not Active										
C[C@@H](CO)NC(=O)[C@@H]1C=C2c3cccc4[nH]cc(c34)C[C@H]2N(C)C1 [ERGONOVINE]	Not Active	Not Active	Not Active	Not Active		Not Active	Not Active	Not Active										567 nM	193 nM
Cn1c(=O)c2[nH]cnc2n(C)c1=O.Cn1c(=O)c2[nH]cnc2n(C)c1=O.NCCN [AMINOPHYLLINE]			Not Active	Not Active	Not Active	Not Active	Not Active	Not Active	Not Active										
GENTAMICIN	Not Active	Not Active	Not Active	Not Active	Not Active	Not Active	Not Active	Not Active		Not Active	Not Active			Not Active	Not Active				
CCCNCC(O)COc1ccccc1C(=O)CCc1ccccc1 (configuration not stated) [PROPAFENONE]			Not Active	Not Active	Not Active	Not Active	Not Active	Not Active	Not Active										
CC(C)NCC(O)COc1cccc2[nH]ccc12 (configuration not stated) [PINDOLOL]			Not Active	Not Active	Not Active		Not Active	Not Active	Not Active										
O=C(N/N=C/c1ccc([N+](=O)[O-])o1)c1cc([N+](=O)[O-])cc([N+](=O)[O-])c1O [NIFURSOL]			Not Active	Not Active	Not Active	Not Active	Not Active	Not Active	Not Active										
COc1cc([C@@H]2c3cc4c(cc3[C@@H](O[C@@H]3O[C@@H]5CO[C@@H](C)O[C@H]5[C@H](O)[C@H]3O)[C@H]3COC(=O)[C@H]23)OCO4)cc(OC)c1O [ETOPOSIDE]			Not Active	Not Active	Not Active	Not Active	Not Active	Not Active	Not Active										
COc1ccc2c3c1O[C@H]1C[C@@H](O)C=C[C@@]31CCN(C)C2 [GALANTAMINE]			Not Active	Not Active	Not Active	Not Active	Not Active	Not Active	Not Active										
CN1[C@@H]2CC[C@H]1C[C@@H](OC(=O)C(CO)c1ccccc1)C2 (some centres not stated) [ATROPINE]			Not Active	Not Active	Not Active	Not Active	Not Active	Not Active	Not Active										
O=C/C=C/c1ccccc1	Not Active	Not Active	Not Active	Not Active	Not Active	Not Active	Not Active	Not Active											
C[n+]1ccc(-c2cc[n+](C)cc2)cc1.[Cl-].[Cl-] [PARAQUAT DICHLORIDE]	Not Active	Not Active	Not Active	Not Active	Not Active	Not Active	Not Active	Not Active											
